Here are results for three compounds from patent US11559598B2, “Alcohol free, low viscosity, and high water content air freshener compositions” (Belle-Aire Fragrances, LLC, priority 2020, dated 2023).

The conditions of series [1]: at 25° C.; cited from earlier work.
Series [2] in a line: Viscosity by Brookfield Rotational Viscometer. As to conditions: 20% BAC1342 in distilled water. The series is classed as physicochemical. The procedure:
Two of the compositions used traditional used surfactants (polysorbate 20 and octylphenol oxylate), and the third used a glycol ether (diethylene glycol mono butyl ether). The appearances of the compositions were recorded and their viscosities were measured using a Brookfield Rotational Viscometer with Spindle #1 and Rotational Speed at 12 RPM: […]

A short description of series [3]: Appearance of air freshener compositions with 20% BAC1342. As to conditions: 20% BAC1342 in distilled water, without any other surfactants. The series is classed as physicochemical. The protocol:
Two of the compositions used traditional used surfactants (polysorbate 20 and octylphenol oxylate), and the third used a glycol ether (diethylene glycol mono butyl ether). The appearances of the compositions were recorded and their viscosities were measured using a Brookfield Rotational Viscometer with Spindle #1 and Rotational Speed at 12 RPM:
Both of the prior art surfactants fail to form transparent microemulsion with 20% BAC1342 in distilled water.

In brackets after ≈: the same amount, converted by molar mass.

Regarding `CC(CC=O)c1ccc(C(C)(C)C)cc1` (stereo not shown) [3-(4-tert-butylphenyl)butanal], the water solubility in series [1] was 38 µg/mL (≈ 186 µM).

As to `C=C1CC/C=C(\C)CC[C@@H]2[C@@H]1CC2(C)C` [Beta-caryophyllene], the water solubility in series [1] was 0.05 µg/mL (≈ 0.245 µM).

With `CCCCOCCOCCO` [diethylene glycol n-butyl ether], the “viscosity (in words)” value in series [2] is “low enough to be applied in various formats such as room sprays and plug-ins”. In addition, the “formation of transparent microemulsion” value in series [3] is reported as “forms clear microemulsion”.
